# Assays:
# [1] = tested on: Staphylococcus aureus; design: method as in PMID 9461679, PMID 8657743, PMID 12521264; conditions: cited from earlier work
# [2] = tested on: MM.1S cells; experiment: MTT assay with IL-6, IGF-I or BMSCs; format: cell-based, human; conditions: 48 h
# Experimental: (§1) U266, RPMI 8226 cells (1×10^4), primary CD138+ cells, PBMCs (5×10^4), and BMSCs (1×10^4) were cultured in 96-well dishes and incubated without or with 6-OAP at indicated concentration for 48 h. MM.1S and MM.1R cells (2×10^4) were seeded into 96-well dishes and pre-cultured for 24 h, then treated with 6-OAP for 48 h. Cell proliferation was determined by MTT assay. Cell viability was estimated by trypan blue dye exclusion.
# Figure 5 6-OAP overcomes the protective effects of IL-6, IGF-I and BMSCs on MM cells. (A and B) MM.1S cells were cultured for 48 h with indicated concentrations of 6-OAP at the presence or absence of IL-6 (A) or IGF-I (B). Cell proliferation was assessed by MTT assay. (C) MM.1S and/or BMSCs cells were cultured for 48 h with indicated concentrations of 6-OAP. Cell proliferation was assessed by MTT assay. *p<.01,** p<.05. (D) MM.1S cells were serum starved for 2 h, then co-cultured without or with 6-OAP at 5 µM for 12 h, followed by stimulation with IL-6 at 10 ng/ml for indicated time points (upper panel), or IL-6 at 10 ng/ml for 1 h, followed by treatment with 6-OAP at indicated concentration for 12 h (lower panel). Whole-cell extracts were prepared and examined by Western blotting using antibodies against pJak2, pStat3, Stat3 or β-actin. (E) MM.1S cells were serum starved for 2 h, then co-cultured without or with 6-OAP (5 µM) for 12 h, followed by stimulation with IGF-I at 50 ng/ml for indicated time points (upper panel), or stimulated with IGF-I at 50 ng/ml for 1 h, followed by treatment with 6-OAP at indicated concentration for 12 h (lower panel). Whole-cell extracts were prepared and examined by western blotting using antibodies against pPDK1, pAkt, Akt or β-actin. (F) MM.1S cells were serum starved for 2 h, then co-cultured without or with 6-OAP (5 µM) for 12 h, followed by stimulation with TNF-α at 5 ng/ml for indicated time points. Whole-cell extracts were prepared and examined by Western blotting using indicated antibodies.
# [3] = tested on: CD138+ primary cells harvested from 7 MM patients; experiment: MTT assay on primary MM cells; format: cell-based, human
# Description: CD138+ cells from 7 MM patients were isolated with informed consent from BM mononuclear cells by using positive immunomagnetic column separation (Miltenyi Biotech, Auburn, CA). The purity of CD138+ cells is above 97% as determined by flow cytometry. BMSCs were generated from a MM patient-derived CD138-negative BM mononuclear cells cultured for 5 weeks. Peripheral blood mononuclear cells (PBMCs) from 5 healthy donors were separated by Ficoll-Hipaque density sedimentation.
# as §1
# [4] = tested on: pIκBα and pP65; experiment: Western blotting, TNF-α stimulation; format: cell-based, human; conditions: MM.1S; 6-OAP 5 µM 12 h; TNF-α 5 ng/ml
# Experimental: Cell pellets were lysed in RIPA buffer containing 50 mM Tris pH 8.0, 150 mM NaCl, 0.1% SDS, 0.5% deoxycholate, 1% NP-40, 1 mM DTT, 1 mM NaF, 1 mM sodium vanadate, and protease inhibitors cocktail (Sigma). For immunoprecipitations, cells were lysed on ice for 15 minutes in RIPA buffer. Lysates were centrifuged. The supernatant was incubated with indicated antibodies overnight, after which protein A/G Plus beads (Santa Cruz Biotechnology) were added and incubated for 3 h. The beads were washed 4 times in RIPA buffer. Then the beads were resuspended in 1× sample buffer and boiled for 3 min. Protein extracts were quantitated and loaded on 8% to 12% sodium dodecyl sulfate polyacrylamide gel, electrophoresed, and transferred to a nitrocellulose membrane (Whatman). The membrane was incubated with primary antibody, washed, and incubated with horseradish peroxidase (HRP)–conjugated secondary antibody (Pierce). Detection was performed by using a chemiluminescent western detection kit (Cell Signaling). […]
# Figure 5 6-OAP overcomes the protective effects of IL-6, IGF-I and BMSCs on MM cells. […] Cell proliferation was assessed by MTT assay. […] Cell proliferation was assessed by MTT assay. *p<.01,** p<.05. […]
# [5] = tested on: RPMI 8226; experiment: MTT cell proliferation assay; format: cell-based; conditions: Homo sapiens, 48 h
# Experimental: as §1
# [6] = tested on: MM.1S; experiment: MTT cell proliferation assay; format: cell-based; conditions: Homo sapiens, MM1.S, 48 h
# Experimental: as §1
# [7] = tested on: MM.1R; experiment: MTT cell proliferation assay; format: cell-based; conditions: Homo sapiens, 48 h
# Experimental: as §1
# [8] = tested on: U266; experiment: MTT cell proliferation assay; format: cell-based; conditions: Homo sapiens, U-266, 48 h
# Experimental: as §1
# [9] = tested on: human HL-60 leukemia cells; design: method as in PMID 18077129; conditions: mitochondrial/caspase and NF-κB pathway; cited from earlier work
compound,measurement,setting,value
"CC=C(C)C(=O)OC1C2C(CC(C)C3C=CC(=O)C31C)OC(=O)C2C (centres unmarked) [6-OAP, 6-O-angeloylplenolin]",antibacterial activity,[1],exhibit antibacterial activity
same,IGF-I-caused cell proliferation,"[2]; IGF-I 10 to 50 ng/ml, 6-OAP 5 to 7.5 µM",abolished IGF-I-caused cell proliferation
same,IL-6-promoted proliferation,"[2]; IL-6 2 to 10 ng/ml, 6-OAP 5 to 7.5 µM",drastically reversed this effect
same,BMSCs-facilitated MM.1S cell expansion,"[2]; co-incubation with BMSCs, 6-OAP 5 or 7.5 µM",significantly inhibited this effect
same,cell growth of CD138+ primary cells,[3],suppressed cell growth
same,TNF-α-induced pIκBα and pP65,[4],inhibited phosphorylation
same,IC50,[5],3.5 ± 0.3 µM
same,IC50,[6],6.1 ± 0.4 µM
same,IC50,[7],9.2 ± 2.1 µM
same,IC50,[8],8.6 ± 0.5 µM
same,apoptosis,[9],induce apoptosis

# Reference: paper PMC3130785, “Small Compound 6-O-Angeloylplenolin Induces Mitotic Arrest and Exhibits Therapeutic Potentials in Multiple Myeloma” (PLoS ONE, 2011)
